# Results: ChEMBL document CHEMBL3600373, “Mapping Selective Inhibition of the Cancer-Related Carbonic Anhydrase IX Using Structure-Activity Relationships of Glucosyl-Based Sulfamates” (J Med Chem, 2015)
# Assays:
# Carbonic anhydrase 9 [1] = biological target: T1, Carbonic anhydrase 9 (Homo sapiens, UniProt Q16790)
# Description: Inhibition of human recombinant CA9 expressed in Escherichia coli by stopped flow CO2 hydration assay
# Carbonic anhydrase 12 = Carbonic anhydrase 12 (Homo sapiens, UniProt O43570); assay: Inhibition of human recombinant CA12 expressed in Escherichia coli by stopped flow CO2 hydration assay
# Carbonic anhydrase 9 [2] = biological target: T1, Carbonic anhydrase 9; assay: Binding affinity to human CA9
# Carbonic anhydrase 2 = Carbonic anhydrase 2 (Homo sapiens, UniProt P00918); assay: Binding affinity to human CA2
# Chain of Carbonic anhydrase 12 (O43570 whole entry): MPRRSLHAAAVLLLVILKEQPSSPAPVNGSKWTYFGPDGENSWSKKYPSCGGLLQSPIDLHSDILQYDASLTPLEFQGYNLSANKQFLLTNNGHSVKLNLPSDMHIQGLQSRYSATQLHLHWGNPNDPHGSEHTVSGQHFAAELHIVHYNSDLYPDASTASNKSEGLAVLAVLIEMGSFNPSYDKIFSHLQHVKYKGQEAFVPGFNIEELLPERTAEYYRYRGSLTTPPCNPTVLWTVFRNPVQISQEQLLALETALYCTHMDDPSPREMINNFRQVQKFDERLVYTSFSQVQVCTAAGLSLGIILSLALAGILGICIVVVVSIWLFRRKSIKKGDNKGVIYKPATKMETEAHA
Ki (Carbonic anhydrase 9 [1]) [nM],Ki (Carbonic anhydrase 12) [nM],Kd (Carbonic anhydrase 9 [2]) [mM],Kd (Carbonic anhydrase 2) [mM],Structure (SMILES)
2,9,–,–,CC(=O)OC[C@H]1O[C@@H](S(=O)(=O)NCCCCCOS(N)(=O)=O)[C@H](OC(C)=O)[C@@H](OC(C)=O)[C@@H]1OC(C)=O
–,–,150,450,OC[C@H]1O[C@@](CO)(O[C@H]2O[C@H](CO)[C@@H](O)[C@H](O)[C@H]2O)[C@@H](O)[C@@H]1O [SUCROSE]
